{"source": "patent US8653040B2", "about": "“Compositions containing sesamin-class compound(s) and quercetin glycoside(s)” (Suntory Holdings Limited, priority 2007, dated 2014)", "test": "Blood (plasma) concentration of sesamin and episesamin in rats after oral administration of the mixture of sesamin-class compounds alone or simultaneously with a test substance (LC-MS/MS)", "conditions": "Example 3, 10 mg/kg sesamin-class compounds plus 200 μmol/kg test flavonoid glycoside in 0.5% CMC suspension", "procedure": "SD (IGS) male rats (7-wk old) were purchased from CHARLES RIVER JAPAN INC. and habituated in the test environment for a week; the animals that were seen to grow normally were selected and subjected to the test. […] After adding an internal standard (UDESMIN; Funakoshi Co., Ltd.) to the samples, solid-phase extraction was performed with Oasis HLB and the resulting solution was concentrated under vacuum, suspended in methanol, passed through a filter, and subjected to LC-MS/MS for quantification of sesamin. The quantities of the sesamin-class compounds were determined from the ratio between their peak area and that of UDESMIN used as the internal standard. […]", "data": [{"substance": "αG-hesperidin", "values": [{"measurement": "bodily absorption amount (AUC) of the sesamin-class compounds relative to the control", "value": 0.71, "unit": "times"}]}]}
